Reference: the NIST ThermoML archive (doi:10.1021/je050031f)

Experiment: xn = mol fraction of the nth substance listed
Details: 100.8 kPa, Liquid

CC(C)OC(C)C [diisopropyl ether] + CCO
Details | mass density, 288.15 K [kg/m3] | mass density, 298.15 K [kg/m3] | mass density, 308.15 K [kg/m3] | viscosity, 288.15 K [mPa·s] | viscosity, 298.15 K [mPa·s] | viscosity, 308.15 K [mPa·s]
x1 = 0.05 | 788.3 | 779.8 | 771 | 1.176 | 0.976 | 0.815
x1 = 0.1 | 783.4 | 774.8 | 765.8 | 1.047 | 0.876 | 0.737
x1 = 0.15 | 778.8 | 770 | 760.9 | 0.946 | 0.793 | 0.671
x1 = 0.2 | 774.7 | 765.7 | 756.4 | 0.851 | 0.718 | 0.613
x1 = 0.25 | 770.7 | 761.4 | 752 | 0.772 | 0.655 | 0.562
x1 = 0.3 | 766.9 | 757.5 | – | 0.705 | 0.605 | –
x1 = 0.35 | 763.3 | 753.9 | – | 0.649 | 0.559 | –
x1 = 0.4 | 760 | 750.4 | – | 0.6 | 0.519 | –
x1 = 0.45 | 756.9 | 747.1 | – | 0.559 | 0.487 | –
x1 = 0.5 | 753.8 | 744.1 | – | 0.523 | 0.457 | –
x1 = 0.55 | 751 | 741.2 | – | 0.494 | 0.432 | –
x1 = 0.6 | 748.3 | 738.4 | – | 0.467 | 0.413 | –
x1 = 0.65 | 745.7 | 735.8 | – | 0.445 | 0.393 | –
x1 = 0.7 | 743.2 | 733.2 | – | 0.424 | 0.378 | –
x1 = 0.75 | 740.7 | 730.7 | – | 0.407 | 0.363 | –
x1 = 0.8 | 738.3 | 728.3 | – | 0.393 | 0.349 | –
x1 = 0.85 | 735.8 | 725.8 | – | 0.379 | 0.338 | –
x1 = 0.9 | 733.5 | 723.4 | – | 0.367 | 0.33 | –
x1 = 0.95 | 731.1 | 720.9 | – | 0.367 | 0.319 | –
x1 = 1 | 729 | 718.6 | – | 0.347 | 0.313 | –
